Measurements as given in paper PMC11435058, “Synthesis of New Thiazole-Privileged Chalcones as Tubulin Polymerization Inhibitors with Potential Anticancer Activities” (Pharmaceuticals, 2024).

Assays:
[1] = tested on: HCC-2998; assay: NCI-60 anticancer screen (SRB; single dose and five doses); settings: Homo sapiens, HCC 2998, 48 h, read-out: Growth Percentage
[2] = tested on: SK-MEL-28; assay: as above; settings: Homo sapiens, SK-MEL-28, 48 h, read-out: Growth Percentage
[3] = tested on: UACC-257; assay: as above; settings: Homo sapiens, UACC-257, 48 h, read-out: Growth Percentage
[4] = tested on: 786-0; assay: as above; settings: Homo sapiens, 786-0, 48 h, read-out: Growth Percentage
[5] = tested on: SF-539; assay: as above; settings: Homo sapiens, SF-539, 48 h, read-out: Growth Percentage
[6] = tested on: TK-10; assay: as above; settings: Homo sapiens, TK-10, 48 h, read-out: Growth Percentage
[7] = tested on: SNB-19; assay: cells; settings: Homo sapiens, SNB-19, 48 h, read-out: Growth Percentage
[8] = tested on: MDA-MB-435; assay: NCI-60 anticancer screen (SRB; single dose and five doses); settings: Homo sapiens, MDA-MB-435, 48 h, read-out: Growth Percentage
[9] = tested on: PC-3; assay: as above; settings: Homo sapiens, PC-3, 48 h, read-out: Growth Percentage
[10] = tested on: NCI-H23; assay: as above; settings: Homo sapiens, NCI-H23, 48 h, read-out: Growth Percentage
[11] = tested on: MDA-MB-231/ATCC; assay: as above; settings: Homo sapiens, MDA-MB-231, 48 h, read-out: Growth Percentage
[12] = tested on: OVCAR-4; assay: as above; settings: Homo sapiens, OVCAR-4, 48 h, read-out: Growth Percentage
[13] = tested on: HL-60(TB); assay: as above; settings: Homo sapiens, HL-60, 48 h, read-out: Growth Percentage
[14] = tested on: SK-MEL-5; assay: as above; settings: Homo sapiens, SK-MEL-5, 48 h, read-out: Growth Percentage
[15] = tested on: SF-295; assay: as above; settings: Homo sapiens, SF-295, 48 h, read-out: Growth Percentage
[16] = tested on: A498; assay: as above; settings: Homo sapiens, A498, 48 h, read-out: Growth Percentage, A498; dose of 10 μM
[17] = tested on: SN12C; assay: as above; settings: Homo sapiens, 48 h, read-out: Growth Percentage
[18] = tested on: DU-145; assay: as above; settings: Homo sapiens, DU-145, 48 h, read-out: Growth Percentage
[19] = tested on: MOLT-4; assay: as above; settings: Homo sapiens, MOLT-4, 48 h, read-out: Growth Percentage
[20] = tested on: RXF 393; assay: as above; settings: Homo sapiens, RXF 393, 48 h, read-out: Growth Percentage
[21] = tested on: M14; assay: as above; settings: Homo sapiens, M14, 48 h, read-out: Growth Percentage
[22] = tested on: HOP-62; assay: as above; settings: Homo sapiens, HOP-62, 48 h, read-out: Growth Percentage
[23] = tested on: BT-549; assay: as above; settings: Homo sapiens, BT-549, 48 h, read-out: Growth Percentage
[24] = tested on: SW-620; assay: as above; settings: Homo sapiens, SW-620, 48 h, read-out: Growth Percentage
[25] = tested on: SK-OV-3; assay: as above; settings: Homo sapiens, SK-OV-3, 48 h, read-out: Growth Percentage
[26] = tested on: T-47D; assay: as above; settings: Homo sapiens, T47D, 48 h, read-out: Growth Percentage
[27] = tested on: CCRF-CEM; assay: NCI-60 anticancer screen (SRB; single dose 10 μM and five doses); settings: Homo sapiens, 48 h, read-out: Growth Percentage
[28] = tested on: MALME-3M; assay: NCI-60 anticancer screen (SRB; single dose and five doses); settings: Homo sapiens, 48 h, read-out: Growth Percentage

| SMILES | activity at 10 µM [1] [%] | activity at 10 µM [2] [%] | activity at 10 µM [3] [%] | activity at 10 µM [5] [%] | activity at 10 µM [7] [%] | activity at 10 µM [8] [%] | activity at 10 µM [9] [%] | activity at 10 µM [10] [%] | activity at 10 µM [11] [%] | activity at 10 µM [12] [%] | activity at 10 µM [13] [%] | activity at 10 µM [14] [%] | activity at 10 µM [15] [%] | activity at 10 µM [16] [%] | activity at 10 µM [17] [%] | activity at 10 µM [18] [%] | activity at 10 µM [19] [%] | activity at 10 µM [20] [%] | activity at 10 µM [21] [%] | activity at 10 µM [23] [%] | further results |
| --- | --- | --- | --- | --- | --- | --- | --- | --- | --- | --- | --- | --- | --- | --- | --- | --- | --- | --- | --- | --- | --- |
| COc1ccc(/C=C/C(=O)c2sc(=S)[nH]c2C)c(OC)c1 [2n, (E)-3-(2,4-Dimethoxyphenyl)-1-(4-Methyl-2-Thioxo-2,3-Dihydrothiazol-5-yl)Prop-2-En-1-One] | 80.7 | 92.8 | 84.4 | 87.3 | 77.4 | 84.7 | 75.7 | 72.9 | 98.7 | 52 | 55.8 | 37.8 | 72.5 | 101 | 81 | 86.9 | 72.3 | 68.9 | 75.8 | 59.8 | activity at 10 µM [4]: 85.9%; activity at 10 µM [6]: 94.1%; activity at 10 µM [22]: 88.8%; activity at 10 µM [24]: 84.9%; activity at 10 µM [25]: 101%; activity at 10 µM [26]: 30.9%; activity at 10 µM [27]: 53.7% |
| COc1ccc(/C=C/C(=O)c2sc(=S)[nH]c2C)cc1 [2l, (E)-3-(4-Methoxyphenyl)-1-(4-Methyl-2-Thioxo-2,3-Dihydrothiazol-5-yl)Prop-2-En-1-One] | 101 | 102 | 68 | 69.8 | 75.6 | 63.9 | 82.2 | 81.8 | 89.3 | 72.3 | 58.5 | 55.9 | 83.5 | 120 | 74.9 | 58.5 | 81.5 | 77.5 | 87.5 | 75 | activity at 10 µM [4]: 78.1%; activity at 10 µM [6]: 80.9%; activity at 10 µM [28]: 90%; activity at 10 µM [24]: 75.3%; activity at 10 µM [27]: 59% |
| COc1cccc(/C=C/C(=O)c2sc(=S)[nH]c2C)c1OC [2m, (E)-3-(2,3-Dimethoxyphenyl)-1-(4-Methyl-2-Thioxo-2,3-Dihydrothiazol-5-yl)Prop-2-En-1-One] | 79.8 | 70 | 35.4 | 22.7 | 37.2 | 51.9 | 41.6 | 86.5 | 68.3 | 62.2 | 12.7 | 23.5 | 26.3 | 109 | 45 | 42 | 36.8 | 52.5 | 54 | 71 | activity at 10 µM [6]: 64.5%; activity at 10 µM [22]: 91.8%; activity at 10 µM [28]: 97.1%; activity at 10 µM [24]: 47.9%; activity at 10 µM [25]: 85.6%; activity at 10 µM [26]: 34.5%; activity at 10 µM [27]: 12.4% |
| Cc1[nH]c(=S)sc1C(=O)/C=C/c1cccc(F)c1 [2b, (E)-3-(3-Fluorophenyl)-1-(4-Methyl-2-Thioxo-2,3-Dihydrothiazol-5-yl)Prop-2-En-1-One] | 58.2 | 93.7 | 83.7 | 6.17 | 44 | 35.9 | 54.7 | 71.1 | 67.4 | 79.5 | 12 | 62.2 | 38.4 | 106 | 32.1 | 12.9 | 43.6 | 23.2 | 78.5 | 65.7 | activity at 10 µM [4]: 46.9%; activity at 10 µM [22]: 34.8%; activity at 10 µM [28]: 101%; activity at 10 µM [24]: 20.9%; activity at 10 µM [25]: 111%; activity at 10 µM [26]: 0.69%; activity at 10 µM [27]: 15.4% |
| Cc1[nH]c(=S)sc1C(=O)/C=C/c1ccccc1Cl [2d, (E)-3-(2-Chlorophenyl)-1-(4-Methyl-2-Thioxo-2,3-Dihydrothiazol-5-yl)Prop-2-En-1-One] | 132 | 101 | 87.2 | 93.6 | 85.2 | 80.8 | 71.8 | 91.8 | 101 | 90.3 | 53 | 68.5 | 82.5 | 116 | 80 | 76 | 84.2 | 93.8 | 82.3 | 76.8 | activity at 10 µM [4]: 93.1%; activity at 10 µM [22]: 91.7%; activity at 10 µM [28]: 105%; activity at 10 µM [24]: 82%; activity at 10 µM [25]: 118%; activity at 10 µM [26]: 47.3%; activity at 10 µM [27]: 46.8% |
| Cc1[nH]c(=S)sc1C(=O)/C=C/c1ccccc1 [2a, (E)-1-(4-Methyl-2-Thioxo-2,3-Dihydrothiazol-5-yl)-3-Phenylprop-2-En-1-One] | 91.3 | 85.2 | 76.2 | 41.7 | 66.8 | 50.1 | 77.6 | 77.5 | 70 | 76.4 | 49.6 | 68.8 | 88.9 | 106 | 66.1 | 27.9 | 74.2 | 46.4 | 77.1 | 68.8 | activity at 10 µM [4]: 68.1%; activity at 10 µM [6]: 80.3%; activity at 10 µM [28]: 87.8%; activity at 10 µM [24]: 69.1%; activity at 10 µM [27]: 37.2% |
